Source: patent US7618958B2, “Stereospecific anxiolytic and anticonvulsant agents with reduced muscle-relaxant, sedative-hypnotic and ataxic effects” (WISYS Technology Foundation, Inc., priority 2004, dated 2009)

Experiments:
α1β3γ2 GABAA receptors = biological target: T1, α1β3γ2 GABAA receptors (Rattus norvegicus, UniProt P18508+P62813); assay: Two-electrode voltage clamp in Xenopus oocytes, α1β3γ2; assay type: cell-based; settings: FIG. 1, Xenopus oocytes
T1 construct: expressed in transfected cells; host or cells: Xenopus laevis oocytes injected with cRNA
T1 sequence (P62813 28-455): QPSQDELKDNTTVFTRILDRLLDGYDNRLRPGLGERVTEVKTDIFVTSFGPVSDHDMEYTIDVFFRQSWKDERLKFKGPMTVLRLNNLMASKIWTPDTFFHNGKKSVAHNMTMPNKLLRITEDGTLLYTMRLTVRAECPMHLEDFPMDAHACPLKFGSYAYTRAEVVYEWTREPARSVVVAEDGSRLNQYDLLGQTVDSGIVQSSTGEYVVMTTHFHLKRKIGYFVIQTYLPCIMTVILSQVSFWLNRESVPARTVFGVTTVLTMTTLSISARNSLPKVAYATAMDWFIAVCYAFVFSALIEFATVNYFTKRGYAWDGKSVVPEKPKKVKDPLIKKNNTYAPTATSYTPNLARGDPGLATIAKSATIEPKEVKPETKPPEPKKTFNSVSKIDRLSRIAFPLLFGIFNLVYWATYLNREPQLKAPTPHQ
T1 sequence (P63079 26-473 partner): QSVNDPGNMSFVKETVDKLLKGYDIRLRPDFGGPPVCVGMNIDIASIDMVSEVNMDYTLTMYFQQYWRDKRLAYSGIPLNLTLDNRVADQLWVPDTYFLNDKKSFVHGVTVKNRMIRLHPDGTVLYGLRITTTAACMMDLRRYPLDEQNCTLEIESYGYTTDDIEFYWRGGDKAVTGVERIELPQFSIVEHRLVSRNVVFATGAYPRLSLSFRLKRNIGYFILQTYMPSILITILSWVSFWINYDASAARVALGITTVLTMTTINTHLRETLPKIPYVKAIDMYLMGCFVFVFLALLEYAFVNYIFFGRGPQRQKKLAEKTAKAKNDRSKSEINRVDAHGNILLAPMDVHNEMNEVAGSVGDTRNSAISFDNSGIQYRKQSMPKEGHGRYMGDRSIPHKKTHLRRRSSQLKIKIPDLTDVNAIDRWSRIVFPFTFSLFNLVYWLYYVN
T1 sequence (P18508 39-466): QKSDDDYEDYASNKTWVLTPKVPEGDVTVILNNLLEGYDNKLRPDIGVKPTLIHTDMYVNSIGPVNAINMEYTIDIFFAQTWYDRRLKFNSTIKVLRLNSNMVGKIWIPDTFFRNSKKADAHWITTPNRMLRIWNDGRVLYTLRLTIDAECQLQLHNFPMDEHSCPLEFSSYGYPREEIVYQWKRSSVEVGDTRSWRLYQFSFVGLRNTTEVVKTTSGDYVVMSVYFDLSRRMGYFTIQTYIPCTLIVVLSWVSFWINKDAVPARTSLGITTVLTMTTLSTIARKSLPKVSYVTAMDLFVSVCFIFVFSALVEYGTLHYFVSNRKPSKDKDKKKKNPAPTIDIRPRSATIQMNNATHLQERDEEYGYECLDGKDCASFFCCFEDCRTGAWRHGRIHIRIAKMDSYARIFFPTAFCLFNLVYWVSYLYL
Protocol: 1. Effects of SH-053-S—CH3 8 on GABA(A) receptors were tested by two-electrode voltage clamp experiments in cRNA injected Xenopus oocytes that functionally expressed several subtype combinations of GABAA receptors. […] This oocyte profile is indicative of an anxiolytic agent devoid of sedative, ataxic and anterograde amnestic side effects.
The methods were based on those published previously. See Li, X., et al., (2003) J. Med. Chem. 46: 5567-5570.
Cloning of GABAA receptor subunits α1, β3 and γ2 into pCDM8 expression vectors (Invitrogen, CA) has been described elsewhere ([…]). GABAA receptor subunit α4 was cloned in an analogous way. cDNAs for subunits α2, α3 and α5 were gifts from P. Malherbe and were subcloned into pCI-vector (Li, et al., 2003). cDNA for subunit α6 was a gift from P. Seeburg and was subcloned into the vector pGEM-3Z (Promega). After linearizing the cDNA vectors with appropriate restriction endonucleases, capped transcripts were produced using the mMessage mMachine T7 transcription kit (Ambion, Tex.). The capped transcripts were polyadenylated using yeast poly(A) polymerase (USB, OH) and were diluted and stored in diethylpyrocarbonate-treated water at −70° C. (Li, et al., 2003). […]

Male BALB/c mice [1] = assay: Light/dark test in mice; assay type: in vivo, mouse; settings: ip, FIG. 2 A, *p<0.05 vs. vehicle
Protocol: (§1) Male BALB/c mice approximately 8 to 10 weeks old (18-25 grams) served as subjects in the locomotor activity and light/dark assays. Animals were housed in groups of four on a 14 hour light/10 hour dark cycle and were given free access to food and water. All experiments were conducted during the animals' light cycle (0800-1700).
(§2) Behavioral testing was conducted in an illuminated open field chamber (11.0″×11.0″; Med Associates MED-OFA-510) equipped with infrared beams and sensors which was placed in a sound attenuating cubicle. Horizontal locomotor activity was measured by recording the total number of beams crossed in a 60 minute period. Anxiolytic-like behavior was assessed using the same chambers with the addition of a Plexiglas insert that is opaque to visible light creating separate darkened and illuminated sides (5.5″×11.0″) of the chamber. An opening in the middle of the dark insert allowed the animals to move freely between each side of the chamber. Animals were place in the center of the illuminated side of the chamber and allowed to freely explore for 10 minutes. The amount of time (sec) that the animals spent in each side of the chamber was recorded. Data were analyzed using one-way analysis of variance and Bonferroni t-tests.
Vehicle and doses of SH-053-S—CH3 8 (10.0-100.0 mg/kg) and SH-053-R-CH3 29 (56.0 mg/kg) were tested in the light/dark and locomotor activity assays. […]

Male BALB/c mice [2] = assay: Locomotor activity in mice; assay type: in vivo, mouse; settings: ip
Protocol: as §1, §2
Vehicle and doses of SH-053-S—CH3 8 (10.0-100.0 mg/kg) and SH-053-R-CH3 29 (56.0 mg/kg) were tested in the light/dark and locomotor activity assays. All drugs were administered intraperitoneally (ip) 30 minutes before each test in volumes of approximately 1 ml/kg. Drugs were dissolved in varying amounts of 95% ethanol (5-10%), propylene glycol and sterile water and diluted to the desired concentration with a solution of 50% propylene glycol and 50% sterile water.

SMILES: C#Cc1ccc2c(c1)C(c1ccccc1)=NC(C)c1c(C(=O)OCC)ncn1-2 (stereo not drawn) [SH-053-S—CH3, 8-Ethynyl-4-methyl-6-phenyl-4H-2,5,10b-triaza-benzo[e]azulene-3-carboxylic acid ethyl ester]
- efficacy at α1β3γ2 subtypes (α1β3γ2 GABAA receptors): almost no efficacy
- time spent in the lighted chamber in the light/dark test (Male BALB/c mice [1]): increased time spent in the lighted chamber
- locomotor activity (Male BALB/c mice [2]; 56 mg/kg): did not suppress locomotor activity
- locomotor activity (Male BALB/c mice [2]; 100 mg/kg): did not suppress locomotor activity in any significant fashion
- locomotor activity (Male BALB/c mice [2]; FIG. 2 B): No effects on locomotor activity were observed
- melting point: 197 to 199 °C
